test: Henry solubility constant Hcp at 298.15 K (mol/(m3 Pa)); conditions: reference: Ashworth et al. (1988)

Compared with `Cc1ccccc1C` [1,2-dimethylbenzene], `Cc1ccccc1` [methylbenzene] is lower in “Henry solubility constant Hcp” value: 0.0019 for the first, 0.0015 for the second.

Compared with `ClCC(Cl)Cl` [1,1,2-trichloroethane], `CC(Cl)CCl` (centres undefined) [1,2-dichloropropane] is lower in “Henry solubility constant Hcp” value: 0.01 for the first, 0.0038 for the second.

Compared with `CCCCCC` [hexane], `CCCCCCCCC` [nonane] is higher in “Henry solubility constant Hcp” value: 9.9e-06 for the first, 2.3e-05 for the second.

Compared with `Clc1cccc(Cl)c1` [1,3-dichlorobenzene], `Clc1ccc(Cl)cc1` [1,4-dichlorobenzene] is higher in “Henry solubility constant Hcp” value: 0.003 for the first, 0.0031 for the second.

First: ClCCl [dichloromethane]
Second: CCCl [chloroethane]
The “Henry solubility constant Hcp” value of the first is higher: 0.0034 for the first, 0.00079 for the second.

First: c1ccccc1 [benzene]
Second: Clc1ccccc1 [chlorobenzene]
The “Henry solubility constant Hcp” value of the first is lower: 0.0018 for the first, 0.0025 for the second.

Compared with `ClC=C(Cl)Cl` [trichloroethene], `C=C(Cl)Cl` [1,1-dichloroethene] is lower in “Henry solubility constant Hcp” value: 0.00095 for the first, 0.00037 for the second.

Going from `COCCO` [2-methoxyethanol] to `CCCC(C)C` [2-methylpentane], the “Henry solubility constant Hcp” value falls from 0.00022 to 1.3e-05.

Going from `ClC(Cl)(Cl)Cl` [tetrachloromethane] to `CC(Cl)(Cl)Cl` [1,1,1-trichloroethane], the “Henry solubility constant Hcp” value rises from 0.00033 to 0.00057.

First: C1CCCCC1 [cyclohexane]
Second: C1CCC2CCCCC2C1 (centres undefined) [decahydronaphthalene]
The “Henry solubility constant Hcp” value of the first is lower: 5.5e-05 for the first, 7.2e-05 for the second.

First: C=CCl [chloroethene]
Second: ClC(Br)Br [dibromochloromethane]
The “Henry solubility constant Hcp” value of the first is lower: 0.0004 for the first, 0.0085 for the second.

`Cc1ccc(C)cc1` [1,4-dimethylbenzene] and `Cc1cccc(C)c1` [1,3-dimethylbenzene] are the same in “Henry solubility constant Hcp” value: 0.0013 for the first, 0.0013 for the second.

Going from `CC(C)c1ccccc1` [(2-propyl)-benzene] to `CCc1ccccc1` [ethylbenzene], the “Henry solubility constant Hcp” value falls from 0.0016 to 0.0012.

Compared with `ClC(Cl)=C(Cl)Cl` [tetrachloroethene], `ClC(Cl)C(Cl)Cl` [1,1,2,2-tetrachloroethane] is higher in “Henry solubility constant Hcp” value: 0.00054 for the first, 0.022 for the second.

First: c1ccc2c(c1)CCCC2 [1,2,3,4-tetrahydronaphthalene]
Second: CCCc1ccccc1 [propylbenzene]
The “Henry solubility constant Hcp” value of the first is higher: 0.0051 for the first, 0.0009 for the second.

First: CC(=O)CC(C)C [4-methyl-2-pentanone]
Second: Cc1ccc(O)c(C)c1 [1-hydroxy-2,4-dimethylbenzene]
The “Henry solubility constant Hcp” value of the first is higher: 0.022 for the first, 0.0019 for the second.

First: ClC(Cl)(Cl)C(Cl)(Cl)Cl [hexachloroethane]
Second: Cc1cc(C)cc(C)c1 [1,3,5-trimethylbenzene]
The “Henry solubility constant Hcp” value of the first is lower: 0.0012 for the first, 0.0014 for the second.

— Sander's compilation of Henry's law constants (doi:10.1016/0304-3894(88)85057-x)
